# From patent publication US9682995B2, “Amino-substituted isothiazoles” (BAYER PHARMA AKTIENGESELLSCHAFT, priority 2013, dated 2017)
# Tests used:
# Test in all cases: Kinase Profiling (KINOMEscan)
# Assay type in all cases: binding
# [1] = molecular target: 456 kinases (of these 395 non-mutant kinases) (Homo sapiens, UniProt Q9Y6R4); conditions: MAP3K4; 10 μM
# [2] = molecular target: 456 kinases (of these 395 non-mutant kinases) (Homo sapiens, UniProt Q8TDC3); conditions: BRSK1; 10 μM
# [3] = molecular target: 456 kinases (of these 395 non-mutant kinases) (Homo sapiens, UniProt O95747); conditions: OSR1; 10 μM
# Sequence of 456 kinases (of these 395 non-mutant kinases) (Homo sapiens, UniProt O95747) (O95747 2-527 limits assumed, change not shown): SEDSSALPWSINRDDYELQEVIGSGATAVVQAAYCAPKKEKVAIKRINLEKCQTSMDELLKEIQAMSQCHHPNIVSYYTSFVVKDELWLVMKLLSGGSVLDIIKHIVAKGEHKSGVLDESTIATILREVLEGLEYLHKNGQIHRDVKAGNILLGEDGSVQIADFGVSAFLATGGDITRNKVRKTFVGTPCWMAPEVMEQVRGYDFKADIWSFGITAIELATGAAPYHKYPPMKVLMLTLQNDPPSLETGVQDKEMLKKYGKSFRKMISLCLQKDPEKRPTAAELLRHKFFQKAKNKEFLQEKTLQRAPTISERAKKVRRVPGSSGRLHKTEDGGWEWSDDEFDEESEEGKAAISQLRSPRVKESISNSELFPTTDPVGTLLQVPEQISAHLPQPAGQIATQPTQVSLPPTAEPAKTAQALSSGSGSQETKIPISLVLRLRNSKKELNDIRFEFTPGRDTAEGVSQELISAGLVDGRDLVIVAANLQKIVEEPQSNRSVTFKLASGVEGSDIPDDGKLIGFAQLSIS
# [4] = molecular target: 456 kinases (of these 395 non-mutant kinases) (Homo sapiens, UniProt Q6P3R8); conditions: NEK5; 10 μM
# [5] = molecular target: 456 kinases (of these 395 non-mutant kinases) (Homo sapiens, UniProt Q02763); conditions: TIE2; 10 μM
# Sequence of 456 kinases (of these 395 non-mutant kinases) (Homo sapiens, UniProt Q02763) (Q02763 23-1124 limits assumed, change not shown): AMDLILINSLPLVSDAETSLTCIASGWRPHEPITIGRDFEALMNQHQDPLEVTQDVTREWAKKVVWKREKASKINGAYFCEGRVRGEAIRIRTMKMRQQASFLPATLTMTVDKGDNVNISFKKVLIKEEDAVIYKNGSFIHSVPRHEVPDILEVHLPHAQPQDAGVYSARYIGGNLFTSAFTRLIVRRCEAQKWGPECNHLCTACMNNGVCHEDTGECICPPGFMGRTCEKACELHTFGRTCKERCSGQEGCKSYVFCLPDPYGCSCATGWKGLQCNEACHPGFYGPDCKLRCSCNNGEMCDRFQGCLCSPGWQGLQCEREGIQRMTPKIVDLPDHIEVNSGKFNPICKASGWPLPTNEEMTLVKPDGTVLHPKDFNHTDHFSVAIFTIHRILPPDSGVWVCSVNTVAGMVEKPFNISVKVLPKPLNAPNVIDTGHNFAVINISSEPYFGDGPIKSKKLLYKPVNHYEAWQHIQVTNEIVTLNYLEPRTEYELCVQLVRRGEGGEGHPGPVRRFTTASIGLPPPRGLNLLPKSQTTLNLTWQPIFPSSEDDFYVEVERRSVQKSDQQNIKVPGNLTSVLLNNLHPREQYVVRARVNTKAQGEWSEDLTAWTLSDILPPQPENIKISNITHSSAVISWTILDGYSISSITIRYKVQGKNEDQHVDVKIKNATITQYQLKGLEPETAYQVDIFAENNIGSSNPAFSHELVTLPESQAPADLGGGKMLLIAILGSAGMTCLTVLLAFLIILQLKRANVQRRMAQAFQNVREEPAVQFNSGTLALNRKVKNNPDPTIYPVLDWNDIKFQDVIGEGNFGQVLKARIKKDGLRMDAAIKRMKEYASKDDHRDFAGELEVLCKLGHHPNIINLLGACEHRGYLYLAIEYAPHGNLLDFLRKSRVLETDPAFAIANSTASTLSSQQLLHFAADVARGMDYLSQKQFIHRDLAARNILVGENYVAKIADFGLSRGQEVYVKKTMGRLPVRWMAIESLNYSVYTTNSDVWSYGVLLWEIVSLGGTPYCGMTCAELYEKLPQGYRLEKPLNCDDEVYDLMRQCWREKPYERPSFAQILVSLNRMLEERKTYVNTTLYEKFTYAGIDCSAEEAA
# [6] = molecular target: 456 kinases (of these 395 non-mutant kinases) (Homo sapiens, UniProt P30291); conditions: WEE1; 10 μM
# [7] = molecular target: 456 kinases (of these 395 non-mutant kinases) (Homo sapiens, UniProt Q9NYY3); conditions: PLK2; 10 μM
# [8] = molecular target: 456 kinases (of these 395 non-mutant kinases) (Homo sapiens, UniProt Q9NRM7); conditions: LATS2; 10 μM
# [9] = molecular target: 456 kinases (of these 395 non-mutant kinases) (Homo sapiens, UniProt P07948); conditions: LYN; 10 μM
# Sequence of 456 kinases (of these 395 non-mutant kinases) (Homo sapiens, UniProt P07948) (P07948 2-512 limits assumed, change not shown): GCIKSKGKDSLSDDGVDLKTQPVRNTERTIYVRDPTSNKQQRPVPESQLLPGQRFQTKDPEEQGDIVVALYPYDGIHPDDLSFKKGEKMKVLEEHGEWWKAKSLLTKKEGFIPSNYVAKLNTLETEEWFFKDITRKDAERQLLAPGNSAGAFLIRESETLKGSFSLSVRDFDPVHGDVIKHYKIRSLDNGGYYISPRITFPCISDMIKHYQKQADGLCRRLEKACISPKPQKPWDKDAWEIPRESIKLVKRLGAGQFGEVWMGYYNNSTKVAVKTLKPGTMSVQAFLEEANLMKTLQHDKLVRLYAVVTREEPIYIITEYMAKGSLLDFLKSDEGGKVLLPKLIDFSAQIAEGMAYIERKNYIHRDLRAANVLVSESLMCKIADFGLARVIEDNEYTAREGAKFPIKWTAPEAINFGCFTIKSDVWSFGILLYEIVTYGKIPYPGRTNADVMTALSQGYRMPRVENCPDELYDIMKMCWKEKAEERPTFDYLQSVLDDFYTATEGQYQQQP
# [10] = molecular target: 456 kinases (of these 395 non-mutant kinases) (Homo sapiens, UniProt Q9BX84); conditions: TRPM6; 10 μM
# [11] = molecular target: 456 kinases (of these 395 non-mutant kinases) (Homo sapiens, UniProt P17612); conditions: PKAC-alpha; 10 μM
# [12] = molecular target: 456 kinases (of these 395 non-mutant kinases) (Homo sapiens, UniProt P36888, D835H); conditions: FLT3(D835H); 10 μM
# [13] = molecular target: 456 kinases (of these 395 non-mutant kinases) (Homo sapiens, UniProt Q9UPE1); conditions: SRPK3; 10 μM
# [14] = molecular target: 456 kinases (of these 395 non-mutant kinases) (Homo sapiens, UniProt Q9Y4K4); conditions: MAP4K5; 10 μM
# [15] = molecular target: 456 kinases (of these 395 non-mutant kinases) (Homo sapiens, UniProt Q9HCP0); conditions: CSNK1G1; 10 μM
# [16] = molecular target: 456 kinases (of these 395 non-mutant kinases) (Homo sapiens, UniProt P36897); conditions: TGFBR1; 10 μM
# Sequence of 456 kinases (of these 395 non-mutant kinases) (Homo sapiens, UniProt P36897) (P36897 34-503 limits assumed, change not shown): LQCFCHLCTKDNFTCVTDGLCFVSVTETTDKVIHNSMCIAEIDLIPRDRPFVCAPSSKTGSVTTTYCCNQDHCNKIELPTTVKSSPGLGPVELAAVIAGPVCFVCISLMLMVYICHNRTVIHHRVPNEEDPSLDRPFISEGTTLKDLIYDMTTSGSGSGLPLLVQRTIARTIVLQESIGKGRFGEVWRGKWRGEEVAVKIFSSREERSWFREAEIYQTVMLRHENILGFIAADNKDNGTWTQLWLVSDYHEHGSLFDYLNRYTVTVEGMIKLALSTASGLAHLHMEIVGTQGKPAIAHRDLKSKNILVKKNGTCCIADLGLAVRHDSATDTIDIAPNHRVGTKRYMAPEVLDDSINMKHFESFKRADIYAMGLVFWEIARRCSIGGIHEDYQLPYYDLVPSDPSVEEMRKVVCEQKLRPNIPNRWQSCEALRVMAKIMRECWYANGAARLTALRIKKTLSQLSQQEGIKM
# [17] = molecular target: 456 kinases (of these 395 non-mutant kinases) (Homo sapiens, UniProt Q8IYT8); conditions: ULK2; 10 μM
# [18] = molecular target: 456 kinases (of these 395 non-mutant kinases) (Homo sapiens, UniProt P00519, F317I); conditions: 10 μM
# [19] = molecular target: 456 kinases (of these 395 non-mutant kinases) (Homo sapiens, UniProt P52333); conditions: JAK3(JH1domain-catalytic); 10 μM
# [20] = molecular target: 456 kinases (of these 395 non-mutant kinases) (Homo sapiens, UniProt Q15208); conditions: NDR1; 10 μM
# [21] = molecular target: 456 kinases (of these 395 non-mutant kinases) (Homo sapiens, UniProt P42336, E545K); conditions: PIK3CA(E545K); 10 μM
# [22] = molecular target: 456 kinases (of these 395 non-mutant kinases) (Homo sapiens, UniProt P57078); conditions: RIPK4; 10 μM
# [23] = molecular target: 456 kinases (of these 395 non-mutant kinases) (Homo sapiens, UniProt P53667); conditions: LIMK1; 10 μM
# [24] = molecular target: 456 kinases (of these 395 non-mutant kinases) (Homo sapiens, UniProt P36896); conditions: ACVR1B; 10 μM
# Sequence of 456 kinases (of these 395 non-mutant kinases) (Homo sapiens, UniProt P36896) (P36896 24-505 limits assumed, change not shown): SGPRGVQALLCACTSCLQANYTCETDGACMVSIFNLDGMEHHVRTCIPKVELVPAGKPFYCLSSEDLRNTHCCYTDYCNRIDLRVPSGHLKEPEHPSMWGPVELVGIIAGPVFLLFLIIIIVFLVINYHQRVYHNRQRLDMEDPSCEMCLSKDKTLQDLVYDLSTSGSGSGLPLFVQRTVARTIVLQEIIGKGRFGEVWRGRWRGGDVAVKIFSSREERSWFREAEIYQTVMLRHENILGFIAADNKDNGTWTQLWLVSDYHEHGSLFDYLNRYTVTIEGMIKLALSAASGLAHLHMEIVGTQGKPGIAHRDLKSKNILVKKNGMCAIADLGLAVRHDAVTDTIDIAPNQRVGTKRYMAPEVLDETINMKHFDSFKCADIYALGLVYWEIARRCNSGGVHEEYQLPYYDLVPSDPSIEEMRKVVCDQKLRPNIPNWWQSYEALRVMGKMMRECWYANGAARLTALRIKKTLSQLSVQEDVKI
# [25] = molecular target: 456 kinases (of these 395 non-mutant kinases) (Homo sapiens, UniProt P09769); conditions: FGR; 10 μM
# [26] = molecular target: 456 kinases (of these 395 non-mutant kinases) (Homo sapiens, UniProt P45983); conditions: JNK1; 10 μM
# [27] = molecular target: 456 kinases (of these 395 non-mutant kinases) (Homo sapiens, UniProt Q6PHR2); conditions: ULK3; 10 μM
# [28] = molecular target: 456 kinases (of these 395 non-mutant kinases) (Homo sapiens, UniProt Q8IY84); conditions: NIM1; 10 μM
# [29] = molecular target: 456 kinases (of these 395 non-mutant kinases) (Homo sapiens, UniProt Q9UM73, C1156Y); conditions: ALK(C1156Y); 10 μM
# Sequence of 456 kinases (of these 395 non-mutant kinases) (Homo sapiens, UniProt Q9UM73, C1156Y) (Q9UM73 19-1620 C1156Y limits assumed): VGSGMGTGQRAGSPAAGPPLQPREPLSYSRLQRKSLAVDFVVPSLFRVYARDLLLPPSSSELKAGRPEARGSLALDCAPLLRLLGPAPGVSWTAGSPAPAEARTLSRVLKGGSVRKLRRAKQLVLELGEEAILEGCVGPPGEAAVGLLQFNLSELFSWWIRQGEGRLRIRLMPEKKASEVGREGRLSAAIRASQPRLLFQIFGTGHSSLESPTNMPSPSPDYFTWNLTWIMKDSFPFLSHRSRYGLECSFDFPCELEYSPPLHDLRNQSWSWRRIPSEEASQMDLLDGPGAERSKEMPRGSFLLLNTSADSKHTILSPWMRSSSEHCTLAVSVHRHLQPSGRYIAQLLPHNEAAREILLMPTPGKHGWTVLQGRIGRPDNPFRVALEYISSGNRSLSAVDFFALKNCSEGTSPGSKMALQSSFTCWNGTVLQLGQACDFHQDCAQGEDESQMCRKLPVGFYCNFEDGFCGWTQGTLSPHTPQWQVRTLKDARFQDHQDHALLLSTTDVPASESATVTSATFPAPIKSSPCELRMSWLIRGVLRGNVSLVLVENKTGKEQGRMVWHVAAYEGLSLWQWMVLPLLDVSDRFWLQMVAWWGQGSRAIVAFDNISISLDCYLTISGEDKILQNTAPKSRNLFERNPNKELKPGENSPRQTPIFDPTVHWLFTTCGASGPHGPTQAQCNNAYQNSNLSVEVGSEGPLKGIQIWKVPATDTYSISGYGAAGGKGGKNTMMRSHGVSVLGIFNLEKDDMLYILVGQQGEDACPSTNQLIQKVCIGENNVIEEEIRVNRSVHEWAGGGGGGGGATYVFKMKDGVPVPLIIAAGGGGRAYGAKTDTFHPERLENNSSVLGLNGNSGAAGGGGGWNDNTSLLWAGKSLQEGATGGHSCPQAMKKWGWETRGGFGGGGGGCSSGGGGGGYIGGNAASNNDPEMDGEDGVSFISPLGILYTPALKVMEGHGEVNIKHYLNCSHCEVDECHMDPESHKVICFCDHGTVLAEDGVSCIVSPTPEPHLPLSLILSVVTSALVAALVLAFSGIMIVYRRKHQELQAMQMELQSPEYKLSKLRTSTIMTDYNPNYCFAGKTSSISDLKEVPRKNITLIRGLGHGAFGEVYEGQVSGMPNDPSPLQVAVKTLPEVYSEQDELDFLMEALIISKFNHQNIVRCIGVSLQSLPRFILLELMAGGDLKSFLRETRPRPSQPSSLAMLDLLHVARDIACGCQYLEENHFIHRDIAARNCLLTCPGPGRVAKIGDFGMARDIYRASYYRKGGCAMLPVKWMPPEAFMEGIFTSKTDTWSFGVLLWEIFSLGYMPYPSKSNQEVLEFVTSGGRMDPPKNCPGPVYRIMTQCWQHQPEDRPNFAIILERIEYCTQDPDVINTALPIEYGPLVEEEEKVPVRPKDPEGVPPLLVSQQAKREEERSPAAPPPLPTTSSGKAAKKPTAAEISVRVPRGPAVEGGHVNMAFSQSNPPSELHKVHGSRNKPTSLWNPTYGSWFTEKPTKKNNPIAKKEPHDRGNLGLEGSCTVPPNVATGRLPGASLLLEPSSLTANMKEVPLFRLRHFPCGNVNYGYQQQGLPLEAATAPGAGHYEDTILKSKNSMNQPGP
# [30] = molecular target: 456 kinases (of these 395 non-mutant kinases) (Homo sapiens, UniProt P51957); conditions: NEK4; 10 μM
# [31] = molecular target: 456 kinases (of these 395 non-mutant kinases) (Homo sapiens, UniProt Q8IWQ3); conditions: BRSK2; 10 μM
# [32] = molecular target: 456 kinases (of these 395 non-mutant kinases) (Homo sapiens, UniProt Q5VT25); conditions: MRCKA; 10 μM
smiles,measurement,setting,value
"CCc1ccccc1NC(=O)c1c(C)nsc1Nc1cnc2cc(F)ccc2n1 [Example 20, N-(2-Ethylphenyl)-5-[(6-fluoroquinoxalin-2-yl)amino]-3-methyl-1,2-thiazole-4-carboxamide]",% Ctrl @ 10 μM,[1],84 % Ctrl
same,% Ctrl @ 10 μM,[2],90 % Ctrl
same,% Ctrl @ 10 μM,[3],97 % Ctrl
same,% Ctrl @ 10 μM,[4],100 % Ctrl
same,% Ctrl @ 10 μM,[5],100 % Ctrl
same,% Ctrl @ 10 μM,[6],100 % Ctrl
same,% Ctrl @ 10 μM,[7],90 % Ctrl
same,% Ctrl @ 10 μM,[8],94 % Ctrl
same,% Ctrl @ 10 μM,[9],76 % Ctrl
same,% Ctrl @ 10 μM,[10],83 % Ctrl
same,% Ctrl @ 10 μM,[11],91 % Ctrl
same,% Ctrl @ 10 μM,[12],83 % Ctrl
same,% Ctrl @ 10 μM,[13],87 % Ctrl
same,% Ctrl @ 10 μM,[14],89 % Ctrl
same,% Ctrl @ 10 μM,[15],90 % Ctrl
same,% Ctrl @ 10 μM,[16],100 % Ctrl
same,% Ctrl @ 10 μM,[17],100 % Ctrl
same,% Ctrl @ 10 μM,[18]; ABL1(F317I)-nonphosphorylated,100 % Ctrl
same,% Ctrl @ 10 μM,[18]; ABL1(F317I)-phosphorylated,86 % Ctrl
same,% Ctrl @ 10 μM,[19],82 % Ctrl
same,% Ctrl @ 10 μM,[20],100 % Ctrl
same,% Ctrl @ 10 μM,[21],84 % Ctrl
same,% Ctrl @ 10 μM,[22],100 % Ctrl
same,% Ctrl @ 10 μM,[23],90 % Ctrl
same,% Ctrl @ 10 μM,[24],100 % Ctrl
same,% Ctrl @ 10 μM,[25],80 % Ctrl
same,% Ctrl @ 10 μM,[26],100 % Ctrl
same,% Ctrl @ 10 μM,[27],100 % Ctrl
same,% Ctrl @ 10 μM,[28],77 % Ctrl
same,% Ctrl @ 10 μM,[29],100 % Ctrl
same,% Ctrl @ 10 μM,[30],99 % Ctrl
same,% Ctrl @ 10 μM,[31],100 % Ctrl
same,% Ctrl @ 10 μM,[32],92 % Ctrl
